Values after ≈ are worked out from the molar mass of the structure shown.
Key:
Assay in all cases: MIC by agar plate dilution method on standard strains (Example 3)
Type in all cases: cell-based
Settings in all cases: read-out: MIC
[1] = test system: Staphylococcus epidermidis ATCC12228
Experimental: (§1) Minimum growth-inhibiting concentrations of trifluoromethionine and other antibacterial drugs on standard strains were determined by an agar plate dilution method according to the standard method of Japanese Society of Chemotherapy.
(§2) Drug solutions at a concentration 10 times as high as the maximum applicable concentration were prepared as original solutions of test drugs given in Table 2 (as to solvents used for this purpose, reference should be made also to Table 2). Serial two-fold dilution series of the original solutions were prepared at desired stages, and 1 ml each of the diluted drug solutions was added to 9 ml of media given in Table 3 to prepare drug plates. Concentration range of the individual drugs used are as follows: trifluoromethionine: 400-0.025 μg/ml (15 stages), tetracycline: 100-0.025 μg/ml (13 stages), and clarithromycin: 100-0.025 μg/ml (13 stages).
(§3) • 1) Bacterial solutions stocked at −80° C. were inoculated on agar media (as to media used, reference should be made to Table 3), and then incubated at 37° C. overnight. When desired, subculturing was conducted once more on the same agar media (by overnight incubation at 37° C.). • 2) Colonies growing on the agar media were sampled by a platinum loop, suspended in liquid media (reference should be made to Table 3) and statically incubated at 37° C. for 18 hours (preculturing). • 3) Preculturing was continued up to McFarland 0.5 (McFarland 0.5=about 10^8 CFU/ml), and then the culture broths were diluted with Muellar Hinton Broth to make 10^6 CFU/ml. 5 μl each of the diluted solutions were inoculated on the above-mentioned drug plates by an inoculator Microplanter.
(§4) Thus, bacterial solutions at about 10^8 CFU/ml can be easily prepared by use of McFarland 0.5. Bacterial solutions at such a turbidity are commercially available, but can be easily prepared. McFarland 0.5 can be obtained by adding 0.5 ml of an aqueous 0.048 mol/l barium chloride solution to 99.5 ml of 1% v/v (0.18 mol/l) sulfuric acid. • 4) The individual bacteria were incubated at 37° C. for 18-20 hours and then the growth was determined in the same manner as in Example 2 to obtain minimum growth-inhibiting concentrations.

[2] = test system: Staphylococcus epidermidis ATCC29886
Experimental: as §1, §2, §3, §4

[3] = test system: Bacillus subtilis ATCC6633
Experimental: as §3, with “Drug solutions at a concentration 10 times as high as the maximum applicable concentration were prepared as original solutions of test drugs given in Table 2 (as to solvents used for this purpose, reference should be made also to Table 2). Serial two-fold dilution series of the original solutions were prepared at desired stages, and 1 ml each of the diluted drug solutions was added to 9 ml of media given in Table 3 to prepare drug plates. […] • 1)” for “• 1)”, “inoculator Microplanter. […] Thus, bacterial solutions at about 10^8 CFU/ml can be easily prepared by use of McFarland 0.5. Bacterial solutions at such a turbidity are commercially available, but can be easily prepared.” for “inoculator Microplanter.”

[4] = test system: Enterococcus faecalis ATCC29247
Experimental: as §3, with “Drug solutions at a concentration 10 times as high as the maximum applicable concentration were prepared as original solutions of test drugs given in Table 2 (as to solvents used for this purpose, reference should be made also to Table 2). Serial two-fold dilution series of the original solutions were prepared at desired stages, and 1 ml each of the diluted drug solutions was added to 9 ml of media given in Table 3 to prepare drug plates. […] • 1)” for “• 1)”, “inoculator Microplanter. […] Thus, bacterial solutions at about 10^8 CFU/ml can be easily prepared by use of McFarland 0.5. Bacterial solutions at such a turbidity are commercially available, but can be easily prepared.” for “inoculator Microplanter.”

[5] = test system: Enterococcus faecium ATCC19434
Experimental: as §3, with “Drug solutions at a concentration 10 times as high as the maximum applicable concentration were prepared as original solutions of test drugs given in Table 2 (as to solvents used for this purpose, reference should be made also to Table 2). Serial two-fold dilution series of the original solutions were prepared at desired stages, and 1 ml each of the diluted drug solutions was added to 9 ml of media given in Table 3 to prepare drug plates. […] • 1)” for “• 1)”, “inoculator Microplanter. […] Thus, bacterial solutions at about 10^8 CFU/ml can be easily prepared by use of McFarland 0.5. Bacterial solutions at such a turbidity are commercially available, but can be easily prepared.” for “inoculator Microplanter.”

[6] = test system: Escherichia coli ATCC25922
Experimental: as §3, with “Drug solutions at a concentration 10 times as high as the maximum applicable concentration were prepared as original solutions of test drugs given in Table 2 (as to solvents used for this purpose, reference should be made also to Table 2). Serial two-fold dilution series of the original solutions were prepared at desired stages, and 1 ml each of the diluted drug solutions was added to 9 ml of media given in Table 3 to prepare drug plates. […] • 1)” for “• 1)”, “inoculator Microplanter. […] Thus, bacterial solutions at about 10^8 CFU/ml can be easily prepared by use of McFarland 0.5. Bacterial solutions at such a turbidity are commercially available, but can be easily prepared.” for “inoculator Microplanter.”

[7] = test system: Escherichia coli ATCC35218
Experimental: as §3, with “Drug solutions at a concentration 10 times as high as the maximum applicable concentration were prepared as original solutions of test drugs given in Table 2 (as to solvents used for this purpose, reference should be made also to Table 2). Serial two-fold dilution series of the original solutions were prepared at desired stages, and 1 ml each of the diluted drug solutions was added to 9 ml of media given in Table 3 to prepare drug plates. […] • 1)” for “• 1)”, “inoculator Microplanter. […] Thus, bacterial solutions at about 10^8 CFU/ml can be easily prepared by use of McFarland 0.5. Bacterial solutions at such a turbidity are commercially available, but can be easily prepared.” for “inoculator Microplanter.”

[8] = test system: Haemophilus influenzae ATCC33391
Experimental: as §3, with “Drug solutions at a concentration 10 times as high as the maximum applicable concentration were prepared as original solutions of test drugs given in Table 2 (as to solvents used for this purpose, reference should be made also to Table 2). Serial two-fold dilution series of the original solutions were prepared at desired stages, and 1 ml each of the diluted drug solutions was added to 9 ml of media given in Table 3 to prepare drug plates. […] • 1)” for “• 1)”, “inoculator Microplanter. […] Thus, bacterial solutions at about 10^8 CFU/ml can be easily prepared by use of McFarland 0.5. Bacterial solutions at such a turbidity are commercially available, but can be easily prepared.” for “inoculator Microplanter.”

[9] = test system: Haemophilus influenzae ATCC33533
Experimental: as §3, with “Drug solutions at a concentration 10 times as high as the maximum applicable concentration were prepared as original solutions of test drugs given in Table 2 (as to solvents used for this purpose, reference should be made also to Table 2). Serial two-fold dilution series of the original solutions were prepared at desired stages, and 1 ml each of the diluted drug solutions was added to 9 ml of media given in Table 3 to prepare drug plates. […] • 1)” for “• 1)”, “inoculator Microplanter. […] Thus, bacterial solutions at about 10^8 CFU/ml can be easily prepared by use of McFarland 0.5. Bacterial solutions at such a turbidity are commercially available, but can be easily prepared.” for “inoculator Microplanter.”

[10] = test system: Haemophilus influenzae ATCC49247
Experimental: as §3, with “Drug solutions at a concentration 10 times as high as the maximum applicable concentration were prepared as original solutions of test drugs given in Table 2 (as to solvents used for this purpose, reference should be made also to Table 2). Serial two-fold dilution series of the original solutions were prepared at desired stages, and 1 ml each of the diluted drug solutions was added to 9 ml of media given in Table 3 to prepare drug plates. […] • 1)” for “• 1)”, “inoculator Microplanter. […] Thus, bacterial solutions at about 10^8 CFU/ml can be easily prepared by use of McFarland 0.5. Bacterial solutions at such a turbidity are commercially available, but can be easily prepared.” for “inoculator Microplanter.”

[11] = test system: Haemophilus influenzae ATCC49766
Experimental: as §3, with “Drug solutions at a concentration 10 times as high as the maximum applicable concentration were prepared as original solutions of test drugs given in Table 2 (as to solvents used for this purpose, reference should be made also to Table 2). Serial two-fold dilution series of the original solutions were prepared at desired stages, and 1 ml each of the diluted drug solutions was added to 9 ml of media given in Table 3 to prepare drug plates. […] • 1)” for “• 1)”, “inoculator Microplanter. […] Thus, bacterial solutions at about 10^8 CFU/ml can be easily prepared by use of McFarland 0.5. Bacterial solutions at such a turbidity are commercially available, but can be easily prepared.” for “inoculator Microplanter.”

[12] = test system: Klebsiella pneumoniae ATCC700603
Experimental: as §3, with “Drug solutions at a concentration 10 times as high as the maximum applicable concentration were prepared as original solutions of test drugs given in Table 2 (as to solvents used for this purpose, reference should be made also to Table 2). Serial two-fold dilution series of the original solutions were prepared at desired stages, and 1 ml each of the diluted drug solutions was added to 9 ml of media given in Table 3 to prepare drug plates. […] • 1)” for “• 1)”, “inoculator Microplanter. […] Thus, bacterial solutions at about 10^8 CFU/ml can be easily prepared by use of McFarland 0.5. Bacterial solutions at such a turbidity are commercially available, but can be easily prepared.” for “inoculator Microplanter.”

[13] = test system: Micrococcus luteus ATCC9341
Experimental: as §3, with “Drug solutions at a concentration 10 times as high as the maximum applicable concentration were prepared as original solutions of test drugs given in Table 2 (as to solvents used for this purpose, reference should be made also to Table 2). Serial two-fold dilution series of the original solutions were prepared at desired stages, and 1 ml each of the diluted drug solutions was added to 9 ml of media given in Table 3 to prepare drug plates. […] • 1)” for “• 1)”, “inoculator Microplanter. […] Thus, bacterial solutions at about 10^8 CFU/ml can be easily prepared by use of McFarland 0.5. Bacterial solutions at such a turbidity are commercially available, but can be easily prepared.” for “inoculator Microplanter.”

[14] = test system: Moraxella (Branhamella) catarrhalis ATCC25238
Experimental: as §3, with “Drug solutions at a concentration 10 times as high as the maximum applicable concentration were prepared as original solutions of test drugs given in Table 2 (as to solvents used for this purpose, reference should be made also to Table 2). Serial two-fold dilution series of the original solutions were prepared at desired stages, and 1 ml each of the diluted drug solutions was added to 9 ml of media given in Table 3 to prepare drug plates. […] • 1)” for “• 1)”, “inoculator Microplanter. […] Thus, bacterial solutions at about 10^8 CFU/ml can be easily prepared by use of McFarland 0.5. Bacterial solutions at such a turbidity are commercially available, but can be easily prepared.” for “inoculator Microplanter.”

CN(C)[C@@H]1C(O)=C(C(N)=O)C(=O)[C@@]2(O)C(O)=C3C(=O)c4c(O)cccc4[C@@](C)(O)[C@H]3C[C@@H]12 [TC, Tetracycline]
MIC [1]: 50 µg/mL (≈ 113 µM) | MIC [2]: 0.39 µg/mL (≈ 0.878 µM) | MIC [3]: 0.2 µg/mL (≈ 0.45 µM) | MIC [4]: 25 µg/mL (≈ 56.3 µM) | MIC [5]: 0.2 µg/mL (≈ 0.45 µM) | MIC [6]: 1.56 µg/mL (≈ 3.51 µM) | MIC [7]: 1.56 µg/mL (≈ 3.51 µM) | MIC [8]: 0.78 µg/mL (≈ 1.76 µM) | MIC [9]: 0.39 µg/mL (≈ 0.878 µM) | MIC [10]: 25 µg/mL (≈ 56.3 µM) | MIC [11]: 0.78 µg/mL (≈ 1.76 µM) | MIC [12]: 50 µg/mL (≈ 113 µM) | MIC [13]: 0.78 µg/mL (≈ 1.76 µM) | MIC [14]: 0.2 µg/mL (≈ 0.45 µM)
